In patent US20240390395A1, “APPLICATION OF ION CHANNEL BLOCKER IN TREATMENT AND/OR PREVENTION OF HEPATIC FIBROSIS” (Affiliated Hospital of Zunyi Medical University, priority 2023, published 2024):

Assays:
[1] = tested on: CCl4-induced hepatic fibrosis mice; assay: CCl4-induced mouse hepatic fibrosis, HE staining and Sirius-red staining of hepatic tissue; format: in vivo; details: gliclazide solution 500 μM, C57 mice
Description: Experimental materials include 60 healthy male C57 mice (20-25 g per mouse, purchased from Chongqing […] Biotechnology Co., Ltd.), gavage needles, 1 milliliter (mL) syringes, CCI4 solution, olive oil, and gliclazide solution. An experimental method is as follows. The CCl4 solution is prepared by dissolving CCl4 in the olive oil (a volume ratio of CCl4 to olive oil is 1:4), and the prepared CCl4 solution should be used immediately. The gliclazide solution is prepared by dissolving gliclazide in physiological saline, the concentration of the gliclazide solution is 500 micromoles per liter (μM), and the prepared gliclazide solution should be used immediately. The mice are randomly divided into four groups including a, b, c, and d. • a. Normal control group. • b. Model group: mice are intragastrically administered with the CCl4 solution, 0.1 mL/20 g (i.e., 0.1. mL CC14 per 20 g of body weight of mice), twice a week for 8 weeks. • c. CCl4+gliclazide group: mice are intragastrically administered with the CCl4 solution alone, 0.1 mL/20 g, twice a week for 2 weeks; then the mice are given with the gliclazide solution and the CCl4 solution together for 6 weeks; and an administration method of the gliclazide solution is 0.2mL/20g and intraperitoneal injection once a day. • d. Gliclazide group: the gliclazide solution is intraperitoneally injected into mice for 8 weeks; and an administration method of the gliclazide solution is 0.2 mL/20 g and intraperitoneal injection once a day. The mice are sacrificed at the 2nd, 4th, 6th and 8th weeks of modeling respectively, and one mouse in each group is sacrificed each time. Hepatic samples obtained from the sacrificed mice are taken out and stored in liquid nitrogen at -80 Celsius degrees (° C.), and the other hepatic samples are fixed in paraformaldehyde with a concentration of 4% for 24 hours, then the other hepatic samples are embedding in paraffin. The degrees of severity of hepatic fibrosis are observed by appearance, Sirius-red staining, and hematoxylin-eosin (HE) staining. […]

α-SMA [2] = assay: α-SMA in hepatic tissues detected by immunohistochemistry; format: in vivo, mouse; details: CCl4-induced hepatic fibrosis mice; gliclazide solution 500 μM intraperitoneal
Description: The mice are randomly divided into four groups including a, b, c, and d. • a. Normal control group. • b. Model group: mice are intragastrically administered with the CCl4 solution, 0.1 mL/20 g (i.e., 0.1. mL CC14 per 20 g of body weight of mice), twice a week for 8 weeks. • c. CCl4+gliclazide group: mice are intragastrically administered with the CCl4 solution alone, 0.1 mL/20 g, twice a week for 2 weeks; then the mice are given with the gliclazide solution and the CCl4 solution together for 6 weeks; and an administration method of the gliclazide solution is 0.2mL/20g and intraperitoneal injection once a day. • d. Gliclazide group: the gliclazide solution is intraperitoneally injected into mice for 8 weeks; and an administration method of the gliclazide solution is 0.2 mL/20 g and intraperitoneal injection once a day. […] An experimental method is as follows.

α-SMA [3] = assay: α-SMA in hepatic tissues detected by Western blotting; format: in vivo, mouse; details: CCl4-induced hepatic fibrosis mice; gliclazide solution 500 μM intraperitoneal
Description: (§1) The mice are randomly divided into four groups including a, b, c, and d. • a. Normal control group. • b. Model group: mice are intragastrically administered with the CCl4 solution, 0.1 mL/20 g (i.e., 0.1. mL CC14 per 20 g of body weight of mice), twice a week for 8 weeks. • c. CCl4+gliclazide group: mice are intragastrically administered with the CCl4 solution alone, 0.1 mL/20 g, twice a week for 2 weeks; then the mice are given with the gliclazide solution and the CCl4 solution together for 6 weeks; and an administration method of the gliclazide solution is 0.2mL/20g and intraperitoneal injection once a day. • d. Gliclazide group: the gliclazide solution is intraperitoneally injected into mice for 8 weeks; and an administration method of the gliclazide solution is 0.2 mL/20 g and intraperitoneal injection once a day. Experimental materials include mouse hepatic tissues, a tweezer, a scissor, steel balls with a size of 2 millimeters (mm), a magnet, a cell lysis solution, a PBS solution, a bicinchoninic acid (BCA) protein assay kit, non-fat powdered milk, primary antibodies and corresponding secondary antibodies related to α-SMA, LC3, and p62. An experimental method is as follows. […] The optical density (OD) value at 560 nanometers (nm) is measured by using an enzyme-linked immunosorbent assay (ELISA) on the machine to calculate the concentration of the protein. […]

LC3 [4] = assay: LC3 in hepatic tissues detected by Western blotting; format: in vivo, mouse; details: CCl4-induced hepatic fibrosis mice; gliclazide solution 500 μM intraperitoneal
Description: as §1

p62 [5] = assay: p62 in hepatic tissues detected by Western blotting; format: in vivo, mouse; details: CCl4-induced hepatic fibrosis mice; gliclazide solution 500 μM intraperitoneal
Description: as §1

HSCs-T6 = assay: HSCs proliferation under co-culture of gliclazide and TGF-β1 detected by CCK8; format: cell-based, rat; details: TGF-β1 10 ng/mL, 48 hours, P<0.05
Description: Experimental materials include HSCs-T6, a Dulbecco's modified eagle medium (DMEM) complete culture medium, a 96-well plate, a counting chamber (also referred to as hemocytometer), CCK-8 working solution, and the like. An experimental method is as follows. First, HSCs-T6 are cultured in the DMEM culture medium containing 10% fetal bovine serum, 1% double antibody (penicillin streptomycin solution) and 1% nonessential amino acid (NEAA), and the culture conditions include 37° C. and 5% CO2. The cells are digested by using trypsin for passage cultivation after the cells are converged to 80% to 90%. Next, the cells are inoculated in the plate, specifically, a density of […] cell suspension with a volume of 100 μL is added into each well of the 96-well plate, each group has 6 replicate wells. This experiment is divided into a control group and a TGF-β1 group, TGF-β1+gliclazide (the gliclazide used in this group has different concentrations of 50μM, 100μM, 150μM, and 200μM) medicament groups. After cell attachment, except for the control group and the TGF-β1 group, the other groups are added with gliclazide with the above concentrations respectively, and after 3 hours, TGF-β1 (10 ng/mL) is added to corresponding groups for stimulating HSCs of […]. After 48 hours of incubation, 100 μL mixed solution of “10% CCK8+90% culture medium” is added into each well. Then the incubation is performed at 37° C. for 1˜4 h, a wavelength is set at 450 nm, and an automatic enzyme analyzer is used to read and record absorbance values at the corresponding wavelength. The effects of gliclazide on cell proliferation are detected by CCK8, and the optimal action time and optimal medicament concentration are screened.

α-SMA [6] = assay: α-SMA in HSCs detected by Western blotting; format: cell-based, rat; details: HSCs-T6; gliclazide 100 βM; TGF-β1 10 ng/ml; 48 hours
Description: (§2) Experimental materials include HSCs-T6, a DMEM complete culture medium, cell culture dishes, a cell lysis solution, a PBS solution, a BCA protein assay kit, non-fat powdered milk, primary antibodies and corresponding secondary antibodies related to α-SMA, LC3, and p62. Experimental method is as follows. First, this experiment is divided into a normal group, a TGF-β1 group, a gliclazide +TGF-β1 group, and a gliclazide group. The concentration of the TGF-β1 is 10 ng/ml, and the concentration of the gliclazide is 100 βM. The the HSCs-T6 is cultured by using the cell culture dish, and inoculated, administrated, added with TGF-β1 according to the conditions described in the embodiment 4. After 48 hours, the incubated cells are rinsed by the precooled PBS solution for 3-4 times, and residual PBS liquid is absorbed with a filter paper, 50 μL radioimmune precipitation assay (RIPA) buffer and 0.5 μL (100:1) phenylmethanesulfonyl fluoride (PMSF) with a concentration of 100millimoles per liter (mmol/L) are added in a 50 mL culture flask and placed on ice for 30 minutes. Then, the protein is scraped by a cell scraper from the culture flask and suctioned out into the EP tubes, and centrifuged at 12000 rpm for 30 minutes at 4° C. […] The OD value at 560 nm is measured by using ELISA on the machine to calculate the concentration of the protein. […]

LC3 [7] = assay: LC3 in HSCs detected by Western blotting; format: cell-based, rat; details: HSCs-T6; gliclazide 100 βM; TGF-β1 10 ng/ml; 48 hours
Description: as §2

p62 [8] = assay: p62 in HSCs detected by Western blotting; format: cell-based, rat; details: HSCs-T6; gliclazide 100 βM; TGF-β1 10 ng/ml; 48 hours
Description: as §2

α-SMA [9] = assay: α-SMA in HSCs added with autophagy agonist rapamycin, Western blotting; format: cell-based, rat; details: HSCs-T6; gliclazide 100 βM; TGF-β1 10 ng/ml; 48 hours; P<0.05
Description: Experimental materials include HSCs-T6, rapamycin, a DMEM complete culture medium, cell culture dishes, a cell lysis solution, a PBS solution, a BCA protein assay kit, non-fat powdered milk, primary antibodies and corresponding secondary antibodies related to α-SMA, LC3, and p62.
Experimental method is as follows. First, this experiment is divided into a normal group, a TGF-β1 group, a gliclazide +TGF-β1 group, and a gliclazide +TGF-β1 +rapamycin group. The concentration of the TGF-β1 is 10 ng/ml, the concentration of the gliclazide is 100 βM, and the concentration of the rapamycin is 100 nanomoles per liter (nM). The TGF-β1 is added at the same time as that in the embodiment 5, and rapamycin and gliclazide are added simultaneously. After 48 hours of incubation, the above groups are detected by the BCA protein assay kit and Western blotting.

[10] = CCl4+gliclazide group vs model group, 0.2 mL/20 g intraperitoneal once a day for 6 weeks

Cc1ccc(S(=O)(=O)NC(=O)NN2CC3CCCC3C2)cc1 (centres unmarked) [gliclazide]
degree of hepatic fibrosis (HE staining) [1, 10]: significantly decreased | degree of hepatic tissue injury (HE staining) [1, 10]: significantly decreased | collagen fibers in hepatic tissue (Sirius-red staining) ([1]; gliclazide group without CCl4, 0.2 mL/20 g intraperitoneal once a day for 8 weeks): no obvious collagen fibers are observed | expression of α-SMA in hepatic tissues (immunohistochemistry) (α-SMA [2]): down-regulate | expression of α-SMA in hepatic tissue (Western blotting) (α-SMA [3]): significantly decreases | expression of LC3 in hepatic tissue (Western blotting) (LC3 [4]): significantly decreases | expression level of autophagy substrate p62 in hepatic tissue (Western blotting) (p62 [5]): significantly increases | proliferation of HSC-T6 induced by TGF-β1 (CCK8) (HSCs-T6; gliclazide 100 μM): inhibits the proliferation | proliferation of HSC-T6 induced by TGF-β1 (CCK8) (HSCs-T6; gliclazide 150 μM): inhibits the proliferation | proliferation of HSC-T6 induced by TGF-β1 (CCK8) (HSCs-T6; gliclazide 200 μM): inhibits the proliferation | expression of α-SMA in HSCs (Western blotting) (α-SMA [6]): significantly decreases | expression of LC3 in HSCs (Western blotting) (LC3 [7]): significantly decreases | expression level of autophagy substrate p62 in HSCs (Western blotting) (p62 [8]): significantly increases | protein expression level of α-SMA, gliclazide +TGF-β1 group vs TGF-β1 group (α-SMA [9]): significantly lower
